Source: patent publication US20260217683A1, “PYRIDAZINONE HETEROCYCLIC COMPOUND MYOSIN II INHIBITOR AND USE THEREOF” (Xizang Haisco Pharmaceutical Co., Ltd., priority 2023, published 2026)
pIC50: −log10 of the molar value. Where two headings read alike, the source gives them in different places.

How the values were obtained:
Format in all cases: biochemical
[1] = system: rabbit skeletal muscle myosin; test: Inhibition of hydrolysis of ATP by rabbit skeletal muscle myosin
Method: The purpose of this test was to evaluate the ability of compounds to inhibit the hydrolysis of ATP by rabbit skeletal muscle myosin. The determination method was as follows:
• Preformed F-actin filaments (#AKF99-B, Cytoskeleton) were diluted to 1 mg/mL with Reaction buffer (25 mM Tris-HCL, pH 7.5+35 mM KCl+0.1 mM EGTA+1 mM MgCl2); • Rabbit myosin (#MYO2-A, Cytoskeleton) was diluted to 0.1 mg/mL with Resuspension buffer (15 mM Tris-HCL, PH7.5+0.2 M KCl+1 mM MgCl2); • ATP (#BSA04-001, Cytoskeleton) was diluted to 3 mM working solution with 15 mM Tris-HCL (PH=7.5);
• adding 13 μL reaction buffer+12 μL F-actin to actin control wells; • adding 10 μL reaction buffer+12 μL F-actin+3 μL myosin II to positive control wells; • adding 10 μL of compound working solution+12 μL of F-actin+3 μL of myosin II to the compound wells; • adding 5 μL of ATP working solution to all test wells to start the reaction, and simultaneously adding a sample to the Pi standard wells according to the instruction (#BK054, Cytoskeleton); • gently mixing and accurately incubating at 37° C. for 60 min; • adding 70 μL of CytoPhos Reagent (#BK054, Cytoskeleton) to each well and incubating for 10 min to stop the reaction.
• the OD value of each well was detected at 650 nm using the endpoint method. The standard curve was fitted according to Pi concentration and OD value, and the Pi concentration of each test well was obtained. Inhibition (%)=(Pi positive control well-Pi test well)/Pi positive control well*100%. The Inhibition %-[…] curve was fitted with Graphpad Prism 8 software, and IC50 was calculated.

[2] = biological target: T1, smooth muscle myosin S1 (Gallus gallus, UniProt P10587); test: Inhibition of hydrolysis of ATP by smooth muscle myosin S1 fragments; details: for inhibition at 100 µM / Smooth muscle myosin S1 (Inhibition @ 100 μM): 100 μM compound
T1 construct: purchased Cytoskeleton #CS-MYS05
Method: The purpose of this test was to evaluate the ability of compounds to inhibit the hydrolysis of ATP by smooth muscle myosin Si fragments. The determination method was as follows: • 1. Solution formulation • F-actin polymer: Cardiac Actin powder (#CS-AD99, Cytoskeleton) was dissolved in a buffer (5 mM Pipes-KOH solution, PH=7.0, containing 100 μM ATP and 500 μM DTT) to form a 2 mg/mL solution and the solution was left at room temperature for 30 min; then 2 mM MgCl2 and 2 mM EGTA were added and the obtained system was left at room temperature for 40 min; • Smooth muscle SI fragment (#CS-MYS05, Cytoskeleton) was diluted with a pre-cooled PM12 buffer containing 1 mM DTT (12 mM Pipes-KOH solution, PH=7.0, containing 2 mM MgCl2) to form a 0.7 mg/mL solution; • ATP (#BSA04-001, Cytoskeleton) was diluted to 5 mM working solution with 15 mM Tris-HCL (PH=7.5); • 2. […] Experimental steps: • adding 10 μL of compound working solution+6 μL of F-actin polymer+4 μL of Smooth muscle Si fragment solution to the compound wells; • adding 10 μL of PM12 buffer containing DMSO+6 μL of F-actin polymer+4 μL of Smooth muscle S1 fragment solution to positive control wells; • adding 10 μL of PM12 buffer containing DMSO+6 μL of F-actin polymer+4 μL of PM12 buffer to negative control wells; • adding […] of 5 mM ATP working solution to all test wells to start the reaction, gently mixing and incubating at 37° C. for 20 min; • after the reaction was completed, taking 6 μLL of reaction liquid, adding 24 μL of PM12 buffer for 5-fold dilution, then detecting the content of the product Pi with a phosphate kit (#BK054, Cytoskeleton); • adding a standard according to the instructions, adding 70 μL of CytoPhos Reagent (#BK054, Cytoskeleton) to all wells and incubating at room temperature for 10 min before detection. • 4. Detection: • the OD value of each well was detected at 650 nm. The standard curve was fitted according to Pi standard concentration and OD value, and the Pi concentration of each test well was obtained. Inhibition (%)=(positive control well−test well)/positive control well*100%.

[3] = biological target: T2, cardiac myosin SII (Bos taurus, UniProt Q9BE39); test: Inhibition of hydrolysis of ATP by cardiac myosin SII; details: 100 μM compound
T2 construct: purchased Cytoskeleton #MYO3-A
Method: The purpose of this test was to evaluate the ability of compounds to inhibit the hydrolysis of ATP by cardiac myosin SII. The determination method was as follows: • 1. Solution formulation: • Preformed F-actin filaments (#AKF99-B, Cytoskeleton) were diluted to 1 mg/mL with Reaction buffer (15 mM Tris-HCL. PH7.5+10 mM KCl+0.1 mM EGTA+2 mM MgCl2); • Cardiac Muscle myosin (#MYO3-A, Cytoskeleton) was diluted to 1 mg/mL with Resuspension buffer (15 mM Tris-HCL, PH7.5+0.2M KCl+1 mM MgCl2); • ATP (#BSA04-001, Cytoskeleton) was diluted to 3 mM working solution with 15 mM Tris-HCL (PH=7.5); • 2. Formulation of working solution of compounds: the final compound concentration was 100 μM • 3. Experimental steps: • adding 10 μL of compound working solution+12 μL of Preformed F-actin filaments+3 μL of Cardiac Muscle myosin to the compound wells; • adding 10 μL of reaction buffer containing DMSO+12 μL Preformed F-actin filaments +3 μL Cardiac Muscle myosin to positive control wells; • adding 10 μL of reaction buffer containing DMSO+12 μL Preformed F-actin filaments +3 μL Resuspension buffer to negative control wells; • adding 5 μL of 3 mM ATP working solution to all test wells to start the reaction, gently mixing and incubating at 37° C. for 2 h; • after the reaction was completed, taking 6 μL of reaction liquid, adding 24 μL of reaction buffer for 5-fold dilution, then detecting the content of the product Pi with a phosphate kit (#BK054, Cytoskeleton); • adding a sample to Pi standard wells according to the instructions; • adding 70 μL of CytoPhos Reagent (#BK054, Cytoskeleton) to each well and incubating at room temperature for 10 min before detection. • 4. Detection: • the OD value of each well was detected at 650 nm. The standard curve was fitted according to Pi standard concentration and OD value, and the Pi concentration of each test well was obtained. Inhibition (%)=(positive control well−test well)/positive control well*100%.

[4] = inhibition of hydrolysis of ATP, class symbols, read-out: Rabbit skeletal muscle myosin (IC50)
[5] = read-out: IC50 for inhibition of hydrolysis of ATP by rabbit skeletal muscle myosin

T2 sequence (Q9BE39 whole entry): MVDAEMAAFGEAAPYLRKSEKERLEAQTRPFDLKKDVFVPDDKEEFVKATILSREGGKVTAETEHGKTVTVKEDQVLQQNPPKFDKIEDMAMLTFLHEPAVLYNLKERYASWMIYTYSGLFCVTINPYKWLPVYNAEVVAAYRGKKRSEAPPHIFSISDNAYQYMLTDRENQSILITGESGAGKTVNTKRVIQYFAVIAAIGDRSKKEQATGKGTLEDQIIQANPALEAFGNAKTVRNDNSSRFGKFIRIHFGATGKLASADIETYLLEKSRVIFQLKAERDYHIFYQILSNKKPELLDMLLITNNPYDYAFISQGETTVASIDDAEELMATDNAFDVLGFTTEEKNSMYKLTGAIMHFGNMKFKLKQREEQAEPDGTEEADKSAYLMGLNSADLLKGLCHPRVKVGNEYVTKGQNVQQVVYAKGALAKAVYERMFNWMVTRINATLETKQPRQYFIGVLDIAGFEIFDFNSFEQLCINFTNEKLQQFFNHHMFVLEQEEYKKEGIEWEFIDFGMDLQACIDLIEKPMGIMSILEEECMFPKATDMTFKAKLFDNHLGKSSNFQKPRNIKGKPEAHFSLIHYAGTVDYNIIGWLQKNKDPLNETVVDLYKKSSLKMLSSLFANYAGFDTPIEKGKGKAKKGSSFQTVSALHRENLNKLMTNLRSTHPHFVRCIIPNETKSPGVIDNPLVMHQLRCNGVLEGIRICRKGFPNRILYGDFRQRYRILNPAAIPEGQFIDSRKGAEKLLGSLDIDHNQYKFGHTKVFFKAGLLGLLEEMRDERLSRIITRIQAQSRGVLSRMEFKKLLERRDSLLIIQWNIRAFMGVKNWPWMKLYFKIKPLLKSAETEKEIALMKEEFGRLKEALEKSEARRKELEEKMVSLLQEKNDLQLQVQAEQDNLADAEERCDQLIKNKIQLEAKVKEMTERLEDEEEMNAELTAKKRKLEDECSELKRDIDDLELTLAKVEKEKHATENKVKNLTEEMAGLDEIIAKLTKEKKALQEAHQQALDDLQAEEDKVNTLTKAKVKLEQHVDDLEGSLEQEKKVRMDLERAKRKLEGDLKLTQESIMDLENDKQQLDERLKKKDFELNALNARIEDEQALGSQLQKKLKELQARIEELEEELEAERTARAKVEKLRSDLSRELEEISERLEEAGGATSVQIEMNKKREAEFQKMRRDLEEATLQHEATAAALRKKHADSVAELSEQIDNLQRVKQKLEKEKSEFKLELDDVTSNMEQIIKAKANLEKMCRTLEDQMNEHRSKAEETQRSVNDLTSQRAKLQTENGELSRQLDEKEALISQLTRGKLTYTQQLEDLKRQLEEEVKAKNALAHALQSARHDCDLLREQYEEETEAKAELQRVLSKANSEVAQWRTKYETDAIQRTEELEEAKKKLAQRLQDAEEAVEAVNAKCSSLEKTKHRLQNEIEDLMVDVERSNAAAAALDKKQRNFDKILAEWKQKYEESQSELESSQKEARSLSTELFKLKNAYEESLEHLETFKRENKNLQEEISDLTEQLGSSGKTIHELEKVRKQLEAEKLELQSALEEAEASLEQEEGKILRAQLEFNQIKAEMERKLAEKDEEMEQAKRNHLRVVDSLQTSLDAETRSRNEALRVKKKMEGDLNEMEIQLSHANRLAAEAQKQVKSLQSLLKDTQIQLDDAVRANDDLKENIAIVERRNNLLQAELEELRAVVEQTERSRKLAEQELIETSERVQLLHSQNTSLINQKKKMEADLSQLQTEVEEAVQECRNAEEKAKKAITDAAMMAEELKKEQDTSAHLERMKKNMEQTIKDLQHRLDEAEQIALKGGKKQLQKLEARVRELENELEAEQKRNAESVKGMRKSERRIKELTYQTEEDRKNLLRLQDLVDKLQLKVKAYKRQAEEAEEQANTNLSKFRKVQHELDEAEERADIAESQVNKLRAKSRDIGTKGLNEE
T2 sequence (P85100 whole entry partner): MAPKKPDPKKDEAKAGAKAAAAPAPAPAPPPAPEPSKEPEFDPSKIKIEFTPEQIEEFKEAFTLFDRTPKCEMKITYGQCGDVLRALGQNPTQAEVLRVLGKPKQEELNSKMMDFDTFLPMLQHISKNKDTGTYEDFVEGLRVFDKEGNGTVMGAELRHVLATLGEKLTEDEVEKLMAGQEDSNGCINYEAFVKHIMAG
T2 sequence (Q3SZE5 whole entry partner): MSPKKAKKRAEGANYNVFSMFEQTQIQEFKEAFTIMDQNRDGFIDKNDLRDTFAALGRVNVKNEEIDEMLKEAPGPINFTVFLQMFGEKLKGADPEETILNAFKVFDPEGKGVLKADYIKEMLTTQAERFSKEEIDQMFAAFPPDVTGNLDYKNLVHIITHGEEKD
T1 sequence (P10587 84-789 limits assumed): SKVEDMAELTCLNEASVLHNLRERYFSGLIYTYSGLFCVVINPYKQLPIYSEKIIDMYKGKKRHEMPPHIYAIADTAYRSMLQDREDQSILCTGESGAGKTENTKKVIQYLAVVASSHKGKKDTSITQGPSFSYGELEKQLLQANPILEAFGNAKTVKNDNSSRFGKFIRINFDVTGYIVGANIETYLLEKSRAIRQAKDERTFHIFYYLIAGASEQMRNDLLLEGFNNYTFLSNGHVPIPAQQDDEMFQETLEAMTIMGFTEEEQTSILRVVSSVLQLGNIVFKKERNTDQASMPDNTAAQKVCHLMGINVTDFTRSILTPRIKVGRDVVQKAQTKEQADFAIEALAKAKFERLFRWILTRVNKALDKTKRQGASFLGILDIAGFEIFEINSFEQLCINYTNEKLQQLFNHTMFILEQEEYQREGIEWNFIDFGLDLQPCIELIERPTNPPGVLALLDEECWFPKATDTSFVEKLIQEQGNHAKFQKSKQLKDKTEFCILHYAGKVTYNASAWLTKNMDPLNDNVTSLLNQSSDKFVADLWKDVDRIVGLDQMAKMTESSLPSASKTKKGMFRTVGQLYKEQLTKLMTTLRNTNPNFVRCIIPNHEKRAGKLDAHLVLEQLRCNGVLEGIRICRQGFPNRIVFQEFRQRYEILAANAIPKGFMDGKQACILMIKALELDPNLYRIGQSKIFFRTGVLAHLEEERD
T1 sequence (P02607 whole entry partner, the tested form may be a part): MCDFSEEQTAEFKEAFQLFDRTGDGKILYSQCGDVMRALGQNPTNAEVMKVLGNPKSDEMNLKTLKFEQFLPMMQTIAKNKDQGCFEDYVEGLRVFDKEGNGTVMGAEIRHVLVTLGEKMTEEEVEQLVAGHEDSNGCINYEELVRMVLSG

pIC50 [1, 4]	pIC50 [1, 5]	inhibition at 50 µM [2] [%]	inhibition at 100 µM [3] [%]	inhibition at 100 µM [2] [%]	Smooth muscle myosin S1 (Inhibition @ 100 μM) [2] [%]	Cardiac myosin SII (Inhibition @ 100 μM) [3] [%]	SMILES
> 5.60	6.30	9.3	-17.8	–	–	–	O=c1ccc(-c2cnc(OCC3CC3)nc2)nn1Cc1ccc2c(c1)CCC2 [Compound 80]
> 5.60	–	20.2	-3.8	–	–	–	O=c1ccc(-c2cnc(OC3CC3)nc2)nn1Cc1ccc2c(c1)CCC2 [Compound 84]
> 5.60	6.40	–	-5	-2	–	–	O=c1cc2c(nn1Cc1ccc3c(c1)CC3)-c1cnc(OCC(F)(F)F)nc1CC2 [Compound 102]
4.70 to 5.60	–	–	2	-2	–	–	O=c1ccc(-c2cnc(OC3CCOCC3)nc2)nn1Cc1ccc2c(c1)CC2 [Compound 95]
> 5.60	6.40	–	–	–	5	7	O=c1ccc(-c2cnc(OCC(F)(F)F)nc2)nn1Cc1ccc2c(c1)C1CC1C2 (centres unmarked) [Compound 159]
> 5.60	6.10	–	8.9	20.7	–	–	CN1CC(Oc2ncc(-c3ccc(=O)n(Cc4ccc5c(c4)CC5)n3)cn2)C1 [Compound 104]
4.70 to 5.60	–	–	3	2	–	–	O=c1ccc(-c2cnc(Oc3nccs3)nc2)nn1Cc1ccc2c(c1)CCC2 [Compound 130]
> 5.60	–	–	1	5	–	–	O=C1CCc2ccc(Cn3nc(-c4cnc(Oc5csc(C(F)(F)F)c5)nc4)ccc3=O)cc21 [Compound 155]
> 5.60	6.70	–	4.5	-0.9	–	–	O=c1ccc(-c2cnc(OCC3(F)CC3)nc2)nn1Cc1ccc2c(c1)CCC2 [Compound 108]
> 5.60	6.10	–	–	–	2	−6	O=c1ccc(-c2cnc(OCC(F)(F)F)nc2)nn1Cc1ccc2c(c1)C1CC1C2 (centres unmarked) [Compound 140]
> 5.60	–	–	17	6	–	–	O=C1CCc2c(Cl)cc(Cn3nc(-c4cnc(OCC(F)(F)F)nc4)ccc3=O)cc21 [Compound 166]
> 5.60	6.26	–	10.2	-3	–	–	O=c1ccc(-c2cnc(OCC(F)(F)F)nc2)nn1Cc1cc(F)c2c(c1)CCC2 [Compound 73]
> 5.60	–	–	2	3	–	–	O=c1ccc(-c2cnc(OCC(F)F)nc2)nn1Cc1ccc2c(c1)CCC2 [Compound 67]
> 5.60	–	–	3	3	–	–	O=c1ccc(-c2cnc(Oc3cncc(F)c3)nc2)nn1Cc1ccc2c(c1)CCC2 [Compound 115]
> 5.60	7.00	–	9.7	-3.5	–	–	O=c1ccc(-c2cnc(C3CCC3)nc2)nn1Cc1ccc2c(c1)CC2 [Compound 109]
4.70 to 5.60	–	–	-8	2	–	–	O=C1CCc2ccc(Cn3nc(-c4cnc(Oc5cncc(C(F)(F)F)c5)nc4)ccc3=O)cc21 [Compound 142]
> 5.60	–	–	1	8	–	–	O=c1ccc(-c2cnc(Oc3cncc(C(F)(F)F)c3)nc2)nn1Cc1ccc2c(c1)CCC2 [Compound 134]
> 5.60	6.05	–	7	-11	–	–	O=c1ccc(-c2cnc(OCC(F)(F)F)nc2)nn1Cc1ccc2c(c1)CC1CC21 (centres unmarked) [Compound 156]
> 5.60	–	–	8	-6	–	–	O=c1ccc(-c2cnc(C3CC(F)(F)C3)nc2)nn1Cc1ccc2c(c1)CCC2 [Compound 127]
> 5.60	–	10.9	-5.6	–	–	–	O=c1ccc(-c2cnc(OCC3CC3(F)F)nc2)nn1Cc1ccc2c(c1)CCC2 (centres unmarked) [Compound 81]
4.70 to 5.60	–	–	13.7	17.6	–	–	O=c1ccc(-c2cnc(OCC(F)(F)F)nc2)nn1Cc1ccc2c(c1)CCCC2(F)F [Compound 89]
> 5.60	–	–	0	-13	–	–	O=c1ccc(-c2cnc(OCC3(F)CCC3)nc2)nn1Cc1ccc2c(c1)CCC2 [Compound 113]
> 5.60	6.30	–	7	7	–	–	O=c1ccc(-c2cnc(O[C@@H]3CCOC3)nc2)nn1Cc1ccc2c(c1)CCC2 [Compound 126]
> 5.60	6.54	–	15.8	5.3	–	–	O=c1ccc(-c2cnc(OCC(F)F)nc2)nn1Cc1cc(F)c2c(c1)CCC2 [Compound 74]
> 5.60	6.05	–	16	16	–	–	N#CC1(COc2ncc(-c3ccc(=O)n(Cc4ccc5c(c4)CCC5)n3)cn2)CC1 [Compound 105]
> 5.60	6.10	–	1	-6	–	–	CC(F)(F)COc1ncc(-c2ccc(=O)n(Cc3ccc4c(c3)CCC4)n2)cn1 [Compound 110]
> 5.60	6.15	–	14	-3	–	–	O=c1ccc(-c2cnc(O[C@H]3CCOC3)nc2)nn1Cc1ccc2c(c1)CCC2 [Compound 120]
> 5.60	–	–	2	-9	–	–	O=c1cc2c(nn1Cc1ccc3c(c1)CC3)-c1cnc(Oc3cncc(F)c3)nc1CC2 [Compound 112]
> 5.60	–	–	-7	-4	–	–	O=C1CCc2cc(F)c(Cn3nc(-c4cnc(OCC(F)(F)F)nc4)ccc3=O)cc21 [Compound 136]
